Laboratory results reported in patent publication US20120009164A1, “Increasing Probiotic Growth Rate and Activity Using Prebiotic Composition” (MASTER SUPPLEMENTS, INC., priority 2010, published 2012).

Legend:
[1] = test system: THERALAC® Lot # 32310A probiotic strains; test: Growth of the commercial probiotic Theralac in MRS broth (Example 10); assay type: cell-based, Lactobacillus and Bifidobacterium strains; conditions: for Lactic Acid % / pH / NTU (Turbidity): additive 0.1% in MRS (polysorbate 80 control: 1.0 g per liter); for NTU (Turbidity): inoculated at 0.1% with THERALAC
Experimental: MRS broth was prepared with (for controls) and without (for tests) polysorbate 80 and filled into 1 liter screw cap flasks at 500 ml each and autoclaved at 121° C. for 30 minutes. Various lecithin and/or oleic acid additives, or nothing (negative control), was added to the tests flasks prior to autoclaving. The flasks were then tempered to 37° C. in a water bath and inoculated at 0.1% with […]® Lot # 32310A, a commercial probiotic product (Master Supplements, Inc., Victoria, Minn.). Capsules of […]® were opened and the contents mixed aseptically to serve as the inoculum source. At an inoculation rate of 0.1%, approximately 80 million CFU was added per ml of MRS media. […]® contains (formulation strength) the following probiotic strains at the approximate CFU values listed per gram: Lactobacillus acidophilus NCFM (LA-1): 30 billion CFU Bifidobacterium lactis Bl-04 (BL-34): 30 billion CFU Lactobacillus paracasei Lpc-37 (F-19): 14 billion CFU Lactobacillus rhamnosus Lr-32 (LR-44): 6 billion CFU Bifidobacterium lactis Bi-07: 8 billion CFU Turbidity, pH and titrations (made with 0.1 N NaOH and reported as % lactic acid) were made at various times up to 23 hours. The results are presented below in Table VI for the 12 and 23-hour analyses.

[2] = test system: L. acidophilus NCFM (LA-1); test: Growth (turbidity) and lactic acid producing activity in MRS broth, L. acidophilus NCFM; assay type: cell-based, Lactobacillus acidophilus
Experimental: Prebiotic formulations are often probiotic strain dependent. […] At specified time intervals, a 30 ml sample from each flask was aseptically transferred into a HACH […] Turbidimeter sample cell. The turbidity of each sample was read and the results were reported in NTU's. The same 30 ml sample used for the turbidity reading was transferred into a 250 ml glass beaker, and the pH was recorded. The sample was titrated using 0.1N NaOH to an endpoint of pH 6.8, and the quantity of NaOH used was recorded. The % Lactic Acid was calculated using the following formula: % Lactic Acid=((mls of 0.1N NaOH)×(0.1N)×(90 gm/mole)×(1 L/1000 ml))×100 mls of sample % Lactic Acid=(mls of 0.1N NaOH)×(0.9) (Results reported at 12 hours and 23 hours like: 12/23 in Table I below)

[3] = test system: Lactobacillus rhamnosus Lr-32 (LR-44); test: Growth (turbidity) and lactic acid producing activity in MRS broth, L. rhamnosus Lr-32; assay type: cell-based; conditions: for Lactic Acid % / NTU (Turbidity) / pH: additive 0.1% in MRS (polysorbate 80 control: 1.0 g per liter)
Experimental: (§1) Prebiotic formulations are often probiotic strain dependent. Some Lactobacillus strains, for example, respond best to a form of lecithin derived from sunflowers (Sunflower Lecithin) while others show no preference to lecithin type and respond equally well to soy lecithin. Other strains show a synergistic response when lecithin is used together with oleic acid. […] Each flask was tempered to 37° C. and aseptically inoculated with 0.14 gm of the individual probiotic strains (in Examples 5 to 10 below) to be tested. At specified time intervals, a 30 ml sample from each flask was aseptically transferred into a HACH […] Turbidimeter sample cell. The turbidity of each sample was read and the results were reported in NTU's. The same 30 ml sample used for the turbidity reading was transferred into a 250 ml glass beaker, and the pH was recorded. The sample was titrated using 0.1N NaOH to an endpoint of pH 6.8, and the quantity of NaOH used was recorded. The % Lactic Acid was calculated using the following formula: % Lactic Acid=((mls of 0.1N NaOH)×(0.1N)×(90 gm/mole)×(1 L/1000 ml))×100 mls of sample % Lactic Acid=(mls of 0.1N NaOH)×(0.9) (Results reported at 12 hours and 23 hours like: 12/23 in Table IV below)

[4] = test system: Bifidobacterium lactis Bl-04 (BL-34); test: Growth (turbidity) and lactic acid producing activity in MRS broth, B. lactis Bl-04; assay type: cell-based; conditions: additive 0.1% in MRS (polysorbate 80 control: 1.0 g per liter)
Experimental: as §1, with “II” for “IV”

[5] = test system: Lactobacillus paracasei Lpc-37 (F-19); test: Growth (turbidity) and lactic acid producing activity in MRS broth, L. paracasei Lpc-37; assay type: cell-based; conditions: for Lactic Acid % / NTU (Turbidity) / pH: additive 0.1% in MRS (polysorbate 80 control: 1.0 g per liter)
Experimental: as §1, with “III” for “IV”

[6] = test system: Lactobacillus salivarius Ls-33 (LS-30); test: Growth (turbidity) and lactic acid producing activity in MRS broth, L. salivarius Ls-33; assay type: cell-based; conditions: for Lactic Acid % / NTU (Turbidity) / pH: additive 0.1% in MRS (polysorbate 80 control: 1.0 g per liter)
Experimental: as §1, with “V” for “IV”

[7] = additive 0.1% in MRS (polysorbate 80 control: 1.0 g per liter), 37° C., 12 hours
[8] = additive 0.1% in MRS (polysorbate 80 control: 1.0 g per liter), 37° C., 23 hours
[9] = additive 0.1% in MRS (polysorbate 80 control: 1.0 g per liter), 12 hours
[10] = additive 0.1% in MRS (polysorbate 80 control: 1.0 g per liter), 23 hours
[11] = additive 0.025% in MRS, 12 hours
[12] = additive 0.025% in MRS, 23 hours
[13] = at the concentrations studied (0.1% + 0.1%)

Compound: polysorbate 80 [reference compound]
- Lactic Acid % ([1]; 12 hours): 1.42%
- pH ([1]; 12 hours): 3.9
- Lactic Acid % ([1]; 23 hours): 1.84%
- pH ([1]; 23 hours): 3.7
- NTU (Turbidity) ([1]; 12 hours): 3311 NTU
- NTU (Turbidity) ([1]; 23 hours): 3694 NTU
- NTU (Turbidity) [2, 7]: 1855 NTU
- NTU (Turbidity) [2, 8]: 2038 NTU
- Lactic Acid % [2, 9]: 1.09%
- pH [2, 9]: 4.2
- Lactic Acid % [2, 10]: 1.27%
- pH [2, 10]: 4.1
- Lactic Acid % ([3]; 12 hours): 1.12%
- NTU (Turbidity) ([3]; 12 hours): 2804 NTU
- pH ([3]; 12 hours): 4.0
- Lactic Acid % ([3]; 23 hours): 1.67%
- NTU (Turbidity) ([3]; 23 hours): 3776 NTU
- pH ([3]; 23 hours): 3.7
- Lactic Acid % ([4]; 12 hours): 0.57%
- NTU (Turbidity) ([4]; 12 hours): 922 NTU
- pH ([4]; 12 hours): 4.8
- Lactic Acid % ([4]; 23 hours): 0.84%
- NTU (Turbidity) ([4]; 23 hours): 1434 NTU
- pH ([4]; 23 hours): 4.5
- Lactic Acid % ([5]; 12 hours): 0.99%
- NTU (Turbidity) ([5]; 12 hours): 1664 NTU
- pH ([5]; 12 hours): 4.2
- Lactic Acid % ([5]; 23 hours): 1.39%
- NTU (Turbidity) ([5]; 23 hours): 2824 NTU
- pH ([5]; 23 hours): 3.9
- Lactic Acid % ([6]; 12 hours): 1.42%
- NTU (Turbidity) ([6]; 12 hours): 3426 NTU
- pH ([6]; 12 hours): 3.8
- Lactic Acid % ([6]; 23 hours): 1.68%
- NTU (Turbidity) ([6]; 23 hours): 3931 NTU
- pH ([6]; 23 hours): 3.7

Compound: CCCCCCCC/C=C\CCCCCCCC(=O)O [Oleic Acid, oleic acid]
- effectiveness as polysorbate 80 replacement (conclusion) ([1]; 0.1% inclusion rate in MRS): acceptable replacement value
- Lactic Acid % ([1]; 12 hours): 1.18%
- pH ([1]; 12 hours): 4.1
- Lactic Acid % ([1]; 23 hours): 1.72%
- pH ([1]; 23 hours): 3.8
- NTU (Turbidity) ([1]; 12 hours): 2775 NTU
- NTU (Turbidity) ([1]; 23 hours): 3529 NTU
- effectiveness as polysorbate 80 replacement (conclusion) ([2]; 0.1% inclusion rate in MRS): somewhat effective
- Lactic Acid % [2, 11]: 0.70%
- pH [2, 11]: 4.5
- Lactic Acid % [2, 12]: 0.77%
- NTU (Turbidity) [2, 12]: 603 NTU
- pH [2, 12]: 4.4
- NTU (Turbidity) [2, 7]: 1451 NTU
- NTU (Turbidity) [2, 8]: 1789 NTU
- Lactic Acid % [2, 9]: 1.03%
- pH [2, 9]: 4.3
- Lactic Acid % [2, 10]: 1.21%
- pH [2, 10]: 4.1
- lag phase ([3]; 0.1% in MRS, at 12 hours): significant lag phase
- effectiveness as polysorbate 80 replacement (conclusion) ([3]; 0.1% inclusion rate in MRS): not as good a replacement for polysorbate 80 as sunflower lecithin
- Lactic Acid % ([3]; 12 hours): 0.072%
- NTU (Turbidity) ([3]; 12 hours): −30.9 NTU
- pH ([3]; 12 hours): 6.2
- Lactic Acid % ([3]; 23 hours): 1.05%
- NTU (Turbidity) ([3]; 23 hours): 2644 NTU
- pH ([3]; 23 hours): 4.1
- synergy of oleic acid with sunflower lecithin (conclusion) [3, 13]: not synergistic
- effectiveness as polysorbate 80 replacement (conclusion) ([5]; 0.1% inclusion rate in MRS): not as effective a replacement for polysorbate 80 as sunflower lecithin
- Lactic Acid % ([5]; 12 hours): 0.33%
- NTU (Turbidity) ([5]; 12 hours): 178 NTU
- pH ([5]; 12 hours): 5.1
- Lactic Acid % ([5]; 23 hours): 1.01%
- NTU (Turbidity) ([5]; 23 hours): 1789 NTU
- pH ([5]; 23 hours): 4.1
- synergy of oleic acid with sunflower lecithin (conclusion) [5, 13]: does not appear to be synergistic
- lag phase ([6]; 0.1% in MRS, at 12 hours): a lag phase is apparent
- effectiveness as polysorbate 80 replacement (conclusion) ([6]; 0.1% inclusion rate in MRS): not as good a replacement
- Lactic Acid % ([6]; 12 hours): 0.073%
- NTU (Turbidity) ([6]; 12 hours): 1440 NTU
- pH ([6]; 12 hours): 4.4
- Lactic Acid % ([6]; 23 hours): 1.51%
- NTU (Turbidity) ([6]; 23 hours): 3578 NTU
- pH ([6]; 23 hours): 3.8
